Reference: ChEMBL document CHEMBL1156829 (Proc Natl Acad Sci U S A, 2008)
Bridge positions count the residues as written; N and C are the ends. Square brackets hold non-standard residues; d marks the D form. Peptide text beside a SMILES is read from it.

Assays:
[1] = test system: Plasmodium falciparum; assay: NOVARTIS: Inhibition of Plasmodium falciparum 3D7 (drug-susceptible) proliferation in erythrocyte-based infection assay; assay type: functional, organism-based
[2] = NOVARTIS: Cytotoxicity against human hepatocellular carcinoma cell line (Huh7); assay type: toxicity, cell-based, Huh-7; conditions: Huh7 cells (hepatocellular carcinoma cell line)
[3] = test system: Plasmodium falciparum; assay: NOVARTIS: Inhibition of Plasmodium falciparum W2 (drug-resistant) proliferation in erythrocyte-based infection assay; assay type: functional, organism-based; conditions: Plasmodium falciparum, W2; read-out: EC50

SMILES	EC50 ([1]; Plasmodium falciparum, 3D7) [nM]	CC50 [2] [nM]	EC50 [3] [nM]	EC50 [1] [nM]
CCCCN(C)C(=O)CSc1nc(NCc2ccccc2)c2ccccc2n1	> 1650	> 10000	361	
O=C(NN=Cc1ccc(O)c(O)c1)/C(=C/c1ccccc1)NC(=O)c1ccccc1	> 1250	> 10000	> 1110	
O=C(COC(=O)c1ccccc1O)c1ccc(Br)cc1	1540	> 10000	1820	
Cn1c(=O)c2c(nc3n(CCCO)c(C45CC6CC(CC(C6)C4)C5)cn23)n(C)c1=O	> 1250	> 10000	1540	
CN(C)c1ccc(N2C(N)=NC(N)=NC23CCCC3)cc1	244	> 10000	> 1570	
CCCCN(CCCC)S(=O)(=O)c1cc(Br)cc2c1N(C(C)=O)CC2	3290	> 100000	1090	
COc1ccccc1NC(=S)N1CCN(c2ccc([N+](=O)[O-])cc2)CC1	577	> 100000	113	
Cn1nc(C(=O)NCc2ccccc2)c2c1CCN(Cc1cccc(O)c1)C2	> 6500	> 100000	935	
COC(=O)C1=C(C)N/C(=C\c2cc(C)n(-c3ccccc3C(F)(F)F)c2C)C1=O	22.4	> 10000	29.9	
CC(C)C[C@@H]1NC(=O)[C@@H](CC(C)C)NC(=O)[C@H](C(C)C)NC(=O)[C@H]2CSSC[C@@H](NC1=O)C(=O)N2 (cyclo(L[dC][dC]V[dL]); disulfide 2-3)	> 1250	> 10000	164	
O=C(NCC1CCCO1)c1cnc(N2CCN(c3ncccn3)CC2)c2ccccc12 (configuration not stated)	> 637	> 10000	> 1400	
Cc1cc(C)c(S(=O)(=O)N(C)CCCNc2ccnc3cc(Cl)ccc23)c(C)c1	167	26800	229	
C=CCSc1ncc(-c2ccc(Cl)cc2)n1C	> 12500	> 100000	1770	
CC1(C)C(=O)C2(CCCCC2)C(=O)OC1C=Cc1ccccc1 (configuration not stated)	> 12500	> 100000	1540	
CC1=NN(c2ccc(C(=O)O)cc2)C(=O)/C1=C\c1ccc([N+](=O)[O-])o1	> 1250	> 10000	> 839	
CCOc1ccccc1-n1c(C(C)N(Cc2ccccc2)C(=O)Nc2cccc3ccccc23)nc2ccccc2c1=O (configuration not stated)	855	> 10000	242	
CCCC(=O)Oc1ccccc1-c1nc2cc(C)ccn2c1NC(C)(C)CC(C)(C)C	3550	> 100000	1890	
CSc1ccccc1CN1CCc2nc(N3CCCCC3)sc2C1	369	> 10000	38.1	
CC(=O)c1c(C)oc2ccc(NS(=O)(=O)c3cccc(C(=O)O)c3)cc12	> 1250	> 10000	> 515	
COc1ccc(OC)c(-c2ccc(O)c(CN(C)CC(O)c3ccccc3)c2)c1 (configuration not stated)	243	66300	124	
CCOc1cccc2oc(=O)c(C(=O)Nc3cc(C(C)(C)C)on3)cc12	> 11700	> 100000	> 4620	
Cc1oc2c(c1C(=O)NC1CCS(=O)(=O)C1)C(=O)c1ccccc1C2=O (configuration not stated)	437	2400	127	
OC(Cn1nnc2ccccc21)Cn1c2ccc(Br)cc2c2cc(Br)ccc21 (configuration not stated)	3370	> 78000	1350	

SMILES	EC50 ([1]; Plasmodium falciparum, 3D7) [nM]	CC50 [2] [nM]	EC50 [3] [nM]	EC50 [1] [nM]
CCCCCCC(=O)NC1CCC(Nc2ccnc3cc(Cl)ccc23)CC1 (configuration not stated)	630	> 10000	> 1250	
COc1ccc(CCN(Cc2ccc(Cl)cc2)S(=O)(=O)c2ccc(S(N)(=O)=O)cc2)cc1OC	4720	67300	> 12500	
CCCSc1nc(N)c2c3c(sc2n1)CN(CCC)CC3	1420	> 100000	1230	
Oc1ccc(-c2ccnc3cc(Cl)ccc23)cc1CNC1CN2CCC1CC2 (configuration not stated)	986	> 10000	< 24.1	
CC(C)CC(N)C(=O)N1CCc2nc(Cc3ccc(F)cc3Cl)sc2C1 (configuration not stated)	> 1250	> 10000	471	
c1ccc(/C2=N/c3ccccc3/N=C(/c3ccccc3)c3ccccc32)cc1	678	> 100000	770	
CCn1c(SCC(=O)Nc2cccc(C)c2)nnc1-c1ccccc1	> 1250	> 10000	26.7	
CCc1cccc2c(C#N)cn(CC(=O)Nc3ccc(OC)cc3)c12	225	> 100000	126	
Cc1ccnc(Nc2nc(-c3c(C)nc4sccn34)cs2)c1	1500	> 73400	753	
CC1CCCCN1CCCNc1ncc(C(=O)NCC2CCCO2)c(NCCc2ccccc2)n1 (configuration not stated)	918	> 10000	26.7	
Cc1ccc(S(=O)(=O)NC(=O)Nc2ccc(N(C)C)cc2)cc1	324	20400	467	
CN(Cc1cc(-c2ccc(F)cc2)ccc1O)CC(O)c1ccccc1 (configuration not stated)	223	> 70900	14.2	
COC(=O)C1=C(C)NC2=C(C(=O)CC(c3ccc(OC)c(OC)c3)C2)C1c1cccs1 (configuration not stated)	130	> 100000	70.9	
CC1CCCCN1CCCNc1ncc(C(=O)NCc2ccccc2)c(NC2CCCC2)n1 (configuration not stated)	943	> 10000	> 1250	
CC(C)C(=O)N(C)CCCNc1ccnc2cc(Cl)ccc12	131	> 10000	118	
CC(C)CNc1nc(NCCCN)ncc1C(=O)NCCc1ccccc1	598	> 10000	> 1250	
COC(=O)C1=C(C)NC2=C(C(=O)CC(c3ccc(OC)cc3)C2)C1c1ccccc1F (configuration not stated)	231	> 100000	88.4	
CCOc1cc(S(=O)(=O)N2CCCC3(CCCCC3)C2)c(OCC)cc1-n1cnnn1	> 1250	> 10000	> 563	
CCc1ccccc1N=C1c2c(cccc2[N+](=O)[O-])C(=O)C1C(C)=O (configuration not stated)	11.3	> 100000	15.4	
CC1(C)CC(NC(=O)C(=O)NC2CC(C)(C)N(O)C(C)(C)C2)CC(C)(C)N1O	> 1300	> 10000	> 784	
CCOc1ccc2[nH]c(=O)c(C(c3nnnn3CCOC)N3CCCC3)cc2c1 (configuration not stated)	> 12500	> 100000	1050	
COc1ccc(C2C(C(=O)NCCN(C)C)c3ccccc3C(=O)N2C2CCCCC2)cc1 (configuration not stated)	> 427	> 10000	1610	
CC(=O)N(C1=C(N2CCCCC2)C(=O)c2ccccc2C1=O)c1ccccc1C	34	20200	18.1	

SMILES	EC50 ([1]; Plasmodium falciparum, 3D7) [nM]	CC50 [2] [nM]	EC50 [3] [nM]	EC50 [1] [nM]
CCOC(=O)C1=C(C)N=c2sc(=Cc3ccccc3OC(C)=O)c(=O)n2C1c1ccc(OC)cc1 (configuration not stated)	515	> 100000	339	
CCOC(=O)NN=C1C=C2C=CC3C(CC[C@@]4(C)C3CC3CCCCC34C(C)=O)[C@@]2(C)CC1 (some centres not stated)	> 902	> 10000	> 1560	
Cc1ccc(-c2noc(C3CCN(C(=O)Nc4ccc(C#N)cc4)CC3)n2)o1	1300	> 100000	1260	
CCOP(=O)(OCC)C(O)c1ccc(C)cc1 (configuration not stated)	> 1250	> 10000	> 1180	
Cc1cc(Nc2ccc(O)cc2)nc2cccc(O)c12	468	52400	407	
CCCCOc1ccc(/C=C/C(=O)NCc2ccco2)cc1	183	> 10000	744	
CC(=O)Nc1sc(C)c(C)c1N=Nc1ccc(S(=O)(=O)O)cc1	1150	> 10000	> 1180	
Oc1c(C(Nc2ccccn2)c2cccc(Oc3ccccc3)c2)ccc2cccnc12 (configuration not stated)	328	62800	320	
COc1ccc(-c2ccc(C=NNC(=O)CNC(=O)c3ccc4c(c3)OCO4)o2)cc1Cl	> 375	> 10000	> 1250	
O=c1c2sccc2nc(SCc2cccc([N+](=O)[O-])c2)n1-c1ccc(Br)cc1	3310	> 100000	1020	
O=C(c1ccc(F)cc1Cl)N1CCN(c2nc(-c3cccs3)ns2)CC1	351	> 10000	78.9	
CCN(CC)S(=O)(=O)c1ccc(-c2csc(Nc3ccc(C)c(C)c3)n2)cc1	> 2100	> 100000	> 1170	
Fc1ccc(-c2c[n+](-c3ccccc3)c3n2CCS3)cc1	764	> 100000	1070	
COc1cc(C=NNC(=O)c2cccc3ccccc23)ccc1OCC(N)=O	> 1250	> 10000	> 989	
Cc1cc(C)c2c(c1)c(-c1ccccc1)c(-c1ccccc1)n2CC(O)Cn1cnc(-c2ccccc2)c1-c1ccccc1 (configuration not stated)	1350	> 100000	155	
CCN1CCN(c2ccc(Nc3c4ccccc4nc4ccccc34)cc2)CC1	50.7	17400	160	
O=C(Nc1ccc(N2CCCCC2)cc1)c1cc2ccccc2o1	> 1300	> 3660	634	
Clc1ccc(-c2c[n+](-c3ccccc3)c3n2CCS3)cc1	308	> 100000	236	
O=C(N/C(=C/C=C/c1ccccc1)C(=O)N1CCOCC1)c1ccccc1	> 1250	> 10000	98.5	
O=C1Nc2ccccc2C1=Nc1ccccc1NS(=O)(=O)c1ccc2ccccc2c1	> 1250	> 10000	> 857	
COC(=O)c1ccc(NC(=O)CSc2nc3cc4c(cc3cc2C#N)OCCO4)cc1	1610	> 10000	1540	
CN(C)c1ccc(C(=Cc2cc(-c3ccccc3)cc(-c3ccccc3)[o+]2)c2ccc(N(C)C)cc2)cc1	1990	14400	898	
Cn1cc(/C=C/c2cc[n+](C)cc2)c2ccccc21		> 8990	314	92.8
